Results: ChEMBL document CHEMBL1135637, “Quantitative structure--activity relations for gammadelta T cell activation by phosphoantigens” (J Med Chem, 2002)

experiment: Effective concentration to activate gammadelta T cells; type: functional, cell-based; details: t-cell

Row | Structure (SMILES) | EC50
1 | CC(O)(CI)CCOP(=O)(O)OP(=O)(O)OP(=O)(O)OCCC(C)(O)CI (stereo not given) | 8.66 µM
2 | O=C(O)C(COP(=O)(O)O)OP(=O)(O)O (stereo not given) | 1580 µM
3 | CCC(=O)COP(=O)(O)OP(=O)(O)O | 44.7 µM
4 | CC(OP(=O)(O)O)C(=O)O (stereo not given) | 1580 µM
5 | CC(COP(=O)(O)OP(=O)(O)O)C(C)(O)CI (stereo not given) | 7.07 µM
6 | CC(O)(CO)CCOP(=O)(O)OP(=O)(O)O (stereo not given) | 3.16 µM
7 | CCC(=O)CCOP(=O)(O)OP(=O)(O)O | 31.6 µM
8 | CC(=O)C(C)COP(=O)(O)OP(=O)(O)O (stereo not given) | 31.6 µM
9 | O=P(O)(O)OCCO | 224 µM
10 | CC(=O)CCCOP(=O)(O)OP(=O)(O)O | 31.6 µM
11 | CC(O)(CBr)CCOP(=O)(O)OP(=O)(O)OP(=O)(O)OCC(C)(O)CBr (stereo not given) | 14.1 µM
12 | C/C=C\COP(=O)(O)O | 158 µM
13 | CC(C)=CCOP(=O)(O)O | 158 µM
14 | C[C@@]1(CCOP(=O)(O)OP(=O)(O)O)CO1 | 0.4 µM
15 | O=P(O)(O)O[C@@H]1OC[C@@H](O)[C@H](O)[C@H]1O | 1580 µM
16 | CCC(C)OP(=O)(O)O (stereo not given) | 2240 µM
17 | O=P(O)(O)OCC(O)CO (stereo not given) | 1580 µM
18 | C=CCOP(=O)(O)O | 158 µM

Row | Structure (SMILES) | EC50
19 | CC(=O)CCOP(=O)(O)OP(=O)(O)O | 40 µM
20 | NCCCC(O)(P(=O)(O)O)P(=O)(O)O [ALENDRONIC ACID] | 0.9 µM
21 | C=CCOP(=O)(O)OP(=O)(O)O [ALLYL PYROPHOSPHATE] | 3.16 µM
22 | CC(O)(CBr)CCOP(=O)(O)OP(=O)(O)O (stereo not given) [BROMOHYDRIN PYROPHOSPHATE] | 0.01 µM
23 | CC(O)(CBr)CCOP(=O)(O)OP(=O)(O)OP(=O)(O)O (stereo not given) [BROMOHYDRIN TRIPHOSPHATE] | 0.346 µM
24 | CC(O)(CCl)CCOP(=O)(O)OP(=O)(O)O (stereo not given) [CHLOROHYDRIN PYROPHOSPHATE] | 0.0707 µM
25 | C/C=C\COP(=O)(O)OP(=O)(O)O [CROTYL PYROPHOSPHATE] | 3.16 µM
26 | CCOP(=O)(OCC)OP(=O)(OCC)OCC [ETHYL PYROPHOSPHATE] | 3.16 µM
27 | CCCCCN(C)CCC(O)(P(=O)(O)O)P(=O)(O)O [IBANDRONIC ACID] | 1 µM
28 | CC(O)(CI)CCOP(=O)(O)OP(=O)(O)O (stereo not given) [IODOHYDRIN PYROPHOSPHATE] | 0.0012 µM
29 | CC(O)(CI)CCOP(=O)(O)OP(=O)(O)OP(=O)(O)O (stereo not given) [IODOHYDRIN TRIPHOSPHATE] | 0.224 µM
30 | C=C(C)CCOP(=O)(O)O [ISOPENTENYL PHOSPHATE] | 158 µM
31 | NCCC(O)(P(=O)(O)O)P(=O)(O)O [PAMIDRONIC ACID] | 5.66 µM
32 | O=C(O)COP(=O)(O)O [PHOSPHOGLYCOLIC ACID] | 707 µM
33 | COP(=O)(O)O [PHOSPHORIC ACID MONOMETHYL ESTER] | 707 µM
34 | CC(C)OP(=O)(O)O [PHOSPHORYLISOPROPANE] | 707 µM
35 | CCCOP(=O)(O)O [PROPYL PHOSPHATE] | 707 µM
